Assays:
[1] = biological target: T1, Brd4 bromodomain 1 (BRD4(1)) (Homo sapiens, UniProt O60885); assay: Inhibition of tetra-acetylated histone H4 binding to Brd4 bromodomain 1 (AlphaScreen); conditions: His-tagged BRD4(1) at 20 nM, biotinylated tetra-acetylated histone H4 peptide, 30 min incubation
T1 construct: N-terminally His-tagged bromodomains (BRD4(1) at 20 nM and BRD4(2) at 100 nM); made in house; host or cells: E. coli BL21(DE3)
Protocol: Proteins were cloned and overexpressed with a N-terminal 6×His tag, then purified by nickel affinity followed by size exclusion chromatography. Briefly, E. coli BL21(DE3) cells were transformed with a recombinant expression vector encoding N-terminally Nickel affinity tagged bromodomains from Brd2, Brd3, Brd4. Cell cultures were incubated at 37° C. with shaking to the appropriate density and induced overnight with IPTG. The supernatant of lysed cells was loaded onto Ni-IDA column for purification. Eluted protein was pooled, concentrated and further purified by size exclusion chromatography. Fractions representing monomeric protein were pooled, concentrated, aliquoted, and frozen at −80° C. for use in subsequent experiments.
Binding of tetra-acetylated histone H4 peptide (Millipore) and BET bromodomains was confirmed by Amplified Luminescent Proximity Homogenous Assay (AlphaScreen). N-terminally His-tagged bromodomains (BRD4(1) at 20 nM and BRD4(2) at 100 nM) and biotinylated tetra-acetylated histone H4 (10-25 nM) were incubated in the presence of nickel chelate acceptor beads and streptavidin donor beads (PerkinAlmer, 6760000K) added to a final concentration of 2 μg/ml under green light in a white 96 well microtiter plate (Greiner). For inhibition assays, serially diluted compounds were added to the reaction mixtures in a 0.1% final concentrations of DMSO. Final buffer concentrations were 50 mM HEPES, 100 mM NaCl and 0.1% BSA buffer, pH 7.4 and optimized to 30 min incubation time. Assay plates were read at 570 nm on a Synergy H4 Plate Reader (Biotek). IC50 values were determined from a dose response curve.

hIL-6 mRNA = assay: Inhibition of hIL-6 mRNA transcription in PMA-differentiated, LPS-stimulated U937 cells; assay type: cell-based; conditions: Homo sapiens, U-937; U937 cells differentiated with PMA, 1 h pretreatment, 1 ug/mL LPS, 3 h, real-time PCR; read-out: IL-6 activity
Protocol: Human leukemic monocyte lymphoma U937 cells (CRL-1593.2) were plated at a density of 3.2×10^4 cells per well in a 96-well plate in 100 μL RPMI-1640 containing 10% FBS and penicillin/streptomycin, and were differentiated into macrophages for 3 days in 60 ng/mL PMA ([…]) at 37° C. in 5% CO2 prior to the addition of compound. The cells were pretreated for 1 h with increasing concentrations of test compound in 0.1% DMSO prior to stimulation with 1 ug/mL lipopolysaccharide from Escherichia coli. Triplicate wells were used for each concentration. The cells were incubated at 37′C, 5% CO2 for 3 h before the cells were harvested. At time of harvest, media was removed and cells were rinsed in 200 μL PBS. Cells were harvested using the mRNA Catcher PLUS kit according to manufacturer's instructions. The eluted mRNA was then used in a one-step quantitative real-time PCR reaction using components of the RNA UltraSense™ One-Step Kit (Life Technologies) together with Applied Biosystems TaqMan® primer-probes for hIL-6 and Cyclophilin. Real-time PCR plates were run on a ViiA™7 real time PCR machine (Applied Biosystems). The data was analyzed, and the Ct values for hIL-6 were normalized to an internal control prior to determining the fold expression of each sample, relative to the control.

hIL-17 mRNA = assay: Inhibition of hIL-17 mRNA transcription in OKT3-stimulated human peripheral blood mononuclear cells; assay type: cell-based; conditions: human PBMC, 1 h pretreatment, OKT3 antibody, 6 h, real-time PCR; read-out: IL-17 activity
Protocol: Human peripheral blood mononuclear cells were plated (2.0×10^5 cells per well) in a 96-well plate in 45 μL OpTimizer T Cell expansion media (Life Technologies) containing 20 ng/ml IL-2 and penicillin/streptomycin. The cells were treated with increasing concentrations of the test compound or DMSO (0.1%), and were incubated at 37° C., 5% CO2 for 1 h before addition of 10× stock OKT3 antibody at 10 ug/ml in media. Triplicate wells were used for each concentration. Cells were incubated at 37° C., 5% CO2 for 6 h before the cells were harvested. At time of harvest, cells were pelleted by centrifugation at 800 rpm for 5 min. Cells were harvested using the mRNA Catcher PLUS kit according to manufacturer's instructions. The eluted mRNA was then used in a one-step quantitative real-time PCR reaction, using components of the RNA UltraSense™ One-Step Kit (Life Technologies) together with Applied Biosystems TaqMan® primer-probes for hIL-17 and Cyclophilin. Real-time PCR plates were run on a ViiA™7 real time PCR machine (Applied Biosystems). The data was analyzed, and the Ct values for hIL-17 were normalized to an internal control prior to determining the fold induction of each unknown sample, relative to the control.

Structure (SMILES)	IC50 [1]	IC50 (hIL-6 mRNA)	IC50 (hIL-17 mRNA)
CSc1ccc(Cn2c(C)nc3ncc(-c4c(C)noc4C)cc32)cc1 [Example 1, 3,5-Dimethyl-4-(2-methyl-1-(4-(methylthio)benzyl)-1H-imidazo[4,5-b]pyridin-6-yl)isoxazole]	≤ 300 nM	300 to 3000 nM	300 to 3000 nM
COC(=O)c1cccc(Cn2c(C)nc3ncc(-c4c(C)noc4C)cc32)c1 [Example 2, Methyl 3-((6-(3,5-dimethylisoxazol-4-yl)-2-methyl-1H-imidazo[4,5-b]pyridin-1-yl)methyl)benzoate]	≤ 300 nM	300 to 3000 nM	300 to 3000 nM
COC(=O)c1ccc(Cn2c(C)nc3ncc(-c4c(C)noc4C)cc32)cc1 [Example 3, Methyl 4-((6-(3,5-dimethylisoxazol-4-yl)-2-methyl-1H-imidazo[4,5-b]pyridin-1-yl)methyl)benzoate]	≤ 300 nM	300 to 3000 nM	
Cc1noc(C)c1-c1cnc2nc(C)n(Cc3ccc([S+](C)[O-])cc3)c2c1 (centres unmarked) [Example 5, 3,5-Dimethyl-4-(2-methyl-1-(4-(methylsulfinyl)benzyl)-1H-imidazo[4,5-b]pyridin-6-yl)isoxazole]	≤ 300 nM		
Cc1noc(CO)c1-c1cnc2nc(C)n(Cc3ccccc3)c2c1 [Example 7, (4-(1-Benzyl-2-methyl-1H-imidazo[4,5-b]pyridin-6-yl)-3-methylisoxazol-5-yl)methanol]	≤ 300 nM	300 to 3000 nM	
Cc1nocc1-c1cnc2nc(C)n(Cc3ccccc3)c2c1 [Example 8, 4-(1-Benzyl-2-methyl-1H-imidazo[4,5-b]pyridin-6-yl)-3-methylisoxazole]	≤ 300 nM	300 to 3000 nM	

Now from value to compound:

IC50 [1]	IC50 (hIL-6 mRNA)	IC50 (hIL-17 mRNA)	Structure (SMILES)
≤ 300 nM	300 to 3000 nM	3000 to 30000 nM	CSc1cccc(Cn2c(C)nc3ncc(-c4c(C)noc4C)cc32)c1 [Example 4, 3,5-Dimethyl-4-(2-methyl-1-(3-(methylthio)benzyl)-1H-imidazo[4,5-b]pyridin-6-yl)isoxazole]
3000 to 30000 nM			Cc1noc(C)c1-c1cnc2nc(C)n(Cc3cccc(C(=O)O)c3)c2c1 [Example 6, 3-((6-(3,5-Dimethylisoxazol-4-yl)-2-methyl-1H-imidazo[4,5-b]pyridin-1-yl)methyl)benzoic acid]
≤ 300 nM	300 to 3000 nM	300 to 3000 nM	Cc1noc(C)c1-c1ccc2[nH]nc(CN3CCC(F)(F)CC3)c2c1 [Example 9, 4-(3-((4,4-Difluoropiperidin-1-yl)methyl)-1H-indazol-5-yl)-3,5-dimethylisoxazole]
≤ 300 nM	300 to 3000 nM	300 to 3000 nM	Cc1noc(C)c1-c1ccc2[nH]nc(CN3CCCCC3)c2c1 [Example 10, 3,5-Dimethyl-4-[3-(1-piperidylmethyl)-1H-indazol-5-yl]isoxazole]
300 to 3000 nM	3000 to 30000 nM	300 to 3000 nM	Cc1noc(C)c1-c1ccc2[nH]nc(CN3CCN(C)CC3)c2c1 [Example 11, 3,5-Dimethyl-4-[3-[(4-methylpiperazin-1-yl)methyl]-1H-indazol-5-yl]isoxazole]
≤ 300 nM	300 to 3000 nM		Cc1noc(C)c1-c1ccc2[nH]nc(CN3CCC(C#N)CC3)c2c1 [Example 12, 1-[[5-(3,5-Dimethylisoxazol-4-yl)-1H-indazol-3-yl]methyl]piperidine-4-carbonitrile]
300 to 3000 nM	300 to 3000 nM		COC1CCN(Cc2n[nH]c3ccc(-c4c(C)noc4C)cc23)CC1 [Example 13, 4-[3-[(4-Methoxy-1-piperidyl)methyl]-1H-indazol-5-yl]-3,5-dimethyl-isoxazole]
300 to 3000 nM	3000 to 30000 nM		Cc1noc(C)c1-c1ccc2[nH]nc(CN3CCOCC3)c2c1 [Example 14, 4-[[5-(3,5-Dimethylisoxazol-4-yl)-1H-indazol-3-yl]methyl]morpholine]

Reference: US20190055235A1, “SUBSTITUTED BICYCLIC COMPOUNDS AS BROMODOMAIN INHIBITORS” (ZENITH EPIGENETICS LTD., priority 2014, published 2019)
